Results on 2 molecules are retold here after publication PMC8339067 (NPJ Breast Cancer, 2021).

For series [1] the following is noted: rats, single dose of the conjugate with trastuzumab, radiolabeled; cited from earlier work.
The conditions of series [2]: cited from earlier work.
For series [3] the following is noted: single agent, cited from earlier work.
A short description of series [4]: Ribociclib plasma pharmacokinetics with T-DM1 (LC-MS/MS, noncompartmental). Type of series: in vivo, human. The conditions noted are these: for AUC: read-out: AUC24. From the text: Additional samples were collected according to this same schedule after the drug was taken for at least 8 days consecutive without interruption to define its steady-state pharmacokinetics. […] The assay was validated and applied to the analysis of study samples according to the recommendations in the current U.S. Food and Drug Administration Guidance for Industry on Bioanalytical Method Validation (https://www.fda.gov/drugs/-guidance-compliance-regulatory-information/guidances-drugs). […] Actual time points were calculated as the difference between the blood sample collection time and the time that the drug was taken. The plasma concentration-time data were analyzed by noncompartmental methods using model 200 for extravascular drug input in WinNonlin Professional version 5.0.1 (Pharsight Corp, Mountain View, CA). The area under the plasma concentration-time curve from the time of dosing to the time of the last sample collected prior to administration of the next dose (AUC24) was estimated using the linear-log trapezoidal method. Total oral clearance (CL/F) was calculated as the dose divided by the AUC24 for the dose given on days 19–21. Pharmacokinetic parameters are reported as the geometric mean (geometric CV%) of the values for individual patients at each dose level. GraphPad Prism for Windows, version 8.4.3 (GraphPad Software, La Jolla, CA) was used for the statistical analysis and graphical presentation of the pharmacokinetic data.

The mark [5] stands for this setting: 300 mg, dose no. 11-12 (steady state), 3 patients, geometric mean.
Where [6] appears, read: 400 mg, dose no. 13 (steady state), 1 patient.
Where [7] appears, read: 500 mg, dose no. 12 (steady state), 2 patients, geometric mean.
Setting [8] is: 600 mg, dose no. 13 (steady state), 1 patient.

Like-named read-outs stand apart in the source and are kept apart here. Some results are limits rather than exact numbers.

As to `COc1cc2cc(c1Cl)N(C)C(=O)C[C@H](OC(=O)[C@H](C)N(C)C(=O)CCS)[C@]1(C)O[C@H]1[C@H](C)[C@@H]1C[C@@](O)(NC(=O)O1)[C@H](OC)/C=C/C=C(\C)C2` [DM1], the “Time to complete clearance” value in series [1] is ≤ 5 days. Moreover, the Half-life entry in series [2] is recorded as “approximately 4 days”.
Broadly, the CL/F is clearance divided by bioavailability, as obtained after extravascular dosing. In general, Cmax refers to the peak of the concentration-time curve. Regarding `CN(C)C(=O)c1cc2cnc(Nc3ccc(N4CCNCC4)cn3)nc2n1C1CCCC1` [ribociclib], the “Geometric mean apparent oral clearance” value was 35.3 L/h in series [3] (400 mg QD, four patients, CV 59.2%) and 25.5 L/h in series [3] (600 mg QD, 53 patients, CV 65.7%). Besides, the Cmin result is reported as “< LLQ” in series [4] (300 mg, dose no. 1, 3 patients, geometric mean, lowest calibration concentration 1.0 ng/mL); 141.7 ng/mL in series [4] (setting [5]); “< LLQ” in series [4] (400 mg, dose no. 1, 3 patients, geometric mean, lowest calibration concentration 1.0 ng/mL); 125.6 ng/mL in series [4] (setting [6]); “< LLQ” in series [4] (500 mg, dose no. 1, 3 patients, geometric mean, lowest calibration concentration 1.0 ng/mL); 178.7 ng/mL in series [4] (setting [7]). For the same molecule, the Cmin result in series [4] (600 mg, dose no. 1, 3 patients, geometric mean, lowest calibration concentration 1.0 ng/mL) is reported as “< LLQ”; in series [4] (setting [8]), 493.9 ng/mL. The CL/F came to 38.6 L/h in series [4] (setting [5]), 47.4 L/h in series [4] (setting [6]), 55.8 L/h in series [4] (setting [7]) and 27.3 L/h in series [4] (setting [8]). Further, the AUC24 in series [4] (setting [7]) is 8,958 ng•h/mL. The Cmax in series [4] (setting [7]) came out at 702.8 ng/mL; in series [4] (human, plasma, oral, 300 mg, dose no. 1, 3 patients, geometric mean, read-out: Cmax) it was 505 ng/mL; in series [4] (human, plasma, oral, 300 mg, dose no. 11-12 (steady state), 3 patients, geometric mean, read-out: Cmax) it was 608 ng/mL; in series [4] (human, plasma, oral, 400 mg, dose no. 1, 3 patients, geometric mean, read-out: Cmax), 735 ng/mL; in series [4] (human, plasma, oral, 400 mg, dose no. 13 (steady state), 1 patient, read-out: Cmax) it was 871 ng/mL; in series [4] (human, plasma, oral, 600 mg, dose no. 1, 3 patients, geometric mean, read-out: Cmax) it was 1270 ng/mL. Moreover, in series [4] (human, plasma, oral, 600 mg, dose no. 13 (steady state), 1 patient, read-out: Cmax), the Cmax amounted to 1740 ng/mL. In series [4] (from AUC24 at steady state, 7 patients, CV 28.1%), the “Overall geometric mean apparent oral clearance” value worked out at 42.1 L/h. Also, the AUC turned out to be 5330 ng·h/mL in series [4] (human, plasma, oral, 300 mg, dose no. 1, 3 patients, geometric mean); 7770 ng·h/mL in series [4] (human, plasma, oral, 300 mg, dose no. 11-12 (steady state), 3 patients, geometric mean); 7980 ng·h/mL in series [4] (human, plasma, oral, 400 mg, dose no. 1, 3 patients, geometric mean); 8430 ng·h/mL in series [4] (human, plasma, oral, 400 mg, dose no. 13 (steady state), 1 patient); 4830 ng·h/mL in series [4] (human, plasma, oral, 500 mg, dose no. 1, 3 patients, geometric mean); 11800 ng·h/mL in series [4] (human, plasma, oral, 600 mg, dose no. 1, 3 patients, geometric mean). The AUC in series [4] (human, plasma, oral, 600 mg, dose no. 13 (steady state), 1 patient) turned out to be 22000 ng·h/mL. Moreover, the “Apparent oral clearance greater than with single agent” value in series [4] (present trial versus single-agent 400 and 600 mg QD) was 19–65%.
